Reference: ChEMBL document CHEMBL1914411, “Synthesis of lipophilic dimeric C-7/C-7-linked ciprofloxacin and C-6/C-6-linked levofloxacin derivatives. Versatile in vitro biological evaluations of monomeric and dimeric fluoroquinolone derivatives as potential antitumor, antibacterial or antimycobacterial agents” (Eur J Med Chem, 2011)
In brackets after ≈: the same amount, converted by molar mass. Activity calls are given as the source filed them. No rule for the calls is given here.

Columns and labels:
[1] = Antiproliferative activity against human U373MG cells after 120 hrs by MTT asasy; type: functional, cell-based, U-373MG ATCC; details: U373 MG
[2] = system: PC-3; test: Antiproliferative activity against human PC3 cells after 120 hrs by MTT asasy; type: functional, cell-based; details: PC-3, 120 h
[3] = system: MCF7; test: Antiproliferative activity against human MCF7 cells after 120 hrs by MTT asasy; type: functional, cell-based; details: MCF7, 120 h
[4] = system: Mycobacterium tuberculosis; test: Antimycobacterial activity against Mycobacterium tuberculosis H37Rv after 6 days by MTT colorimetric microassay; type: functional, organism-based; details: 144 h
[5] = system: Mycobacterium tuberculosis; test: Antimycobacterial activity against Mycobacterium tuberculosis H37Rv assessed as growth inhibition at 1 uM after 6 days by MTT colorimetric microassay; type: functional; details: 144 h, read-out: GI
[6] = system: Mycobacterium tuberculosis; test: Antimycobacterial activity against Mycobacterium tuberculosis H37Rv assessed as growth inhibition at 10 uM after 6 days by MTT colorimetric microassay; type: functional; details: 144 h, read-out: GI
[7] = system: A549; test: Antiproliferative activity against human A549 cells after 120 hrs by MTT asasy; type: functional, cell-based; details: A549, 120 h
[8] = system: Escherichia coli; test: Antimicrobial activity against Escherichia coli CIP 53126 after 18 to 24 hrs by broth microdilution method; type: functional
[9] = system: Pseudomonas aeruginosa; test: Antimicrobial activity against Pseudomonas aeruginosa CIP 82.118 after 18 to 24 hrs by broth microdilution method; type: functional
[10] = system: Enterococcus hirae; test: Antimicrobial activity against Enterococcus hirae CIP 5855 after 18 to 24 hrs by broth microdilution method; type: functional
[11] = system: Mycobacterium tuberculosis; test: Antimycobacterial activity against Mycobacterium tuberculosis H37Rv assessed as growth inhibition at 0.1 uM after 6 days by MTT colorimetric microassay; type: functional, organism-based
[12] = system: Staphylococcus aureus; test: Antimicrobial activity against Staphylococcus aureus CIP 4.83 after 18 to 24 hrs by broth microdilution method; type: functional
[13] = system: Staphylococcus aureus; test: Antimicrobial activity against multidrug-resistant Staphylococcus aureus isolate 1 after 18 to 24 hrs by broth microdilution method; type: functional
[14] = system: Staphylococcus aureus; test: Ratio of ciprofloxacin MIC to compound MIC for methicillin-resistant Staphylococcus aureus ATCC 33592; type: functional
[15] = system: Staphylococcus aureus; test: Antimicrobial activity against methicillin-resistant Staphylococcus aureus ATCC 33592 after 18 to 24 hrs by broth microdilution method; type: functional
[16] = system: Staphylococcus aureus; test: Antimicrobial activity against methicillin-resistant Staphylococcus aureus ATCC 33591 after 18 to 24 hrs by broth microdilution method; type: functional
[17] = system: Staphylococcus aureus; test: Antimicrobial activity against multidrug-resistant Staphylococcus aureus isolate 2 after 18 to 24 hrs by broth microdilution method; type: functional
[18] = Solubility of compound in cell medium at 20 uM at 37 degC after 24 hrs; type: physicochemical
[19] = system: LoVo; test: Antiproliferative activity against human LoVo cells after 120 hrs by MTT asasy; type: functional, cell-based

SMILES | IC50 [1] | IC50 [2] | IC50 [3] | IC50 [4] | MIC [4] | inhibition of growth at 1 µM [5] | inhibition of growth at 10 µM [6] | IC50 [7] | MBC [8] | MIC [8] | MBC [9] | MIC [9] | MBC [10] | MIC [10] | growth inhibition (GI) [11] | MBC [12] | MIC [12] | MBC [13] | MIC [13] | Ratio [14] | other results
C[C@H]1COc2c(N3CCN(C)CC3)c(F)cc3c(=O)c(C(=O)O)cn1c23 [LEVOFLOXACIN] | 67000 nM | 67000 nM | 67000 nM | 800 nM | 2.5 µM (≈ 0.903 µg/mL) | 85% | 96% | 67000 nM | ≤ 0.97 µM | ≤ 0.97 µM | ≤ 0.97 µM | ≤ 0.97 µM | 1.9 µM (≈ 0.687 µg/mL) | ≤ 0.97 µM | inactive | ≤ 0.97 µM | ≤ 0.97 µM |  |  |  | 
CCCCOC(=O)N1CCN(c2cc3c(cc2F)c(=O)c(C(=O)O)cn3C2CC2)CC1 | 31000 nM |  |  |  |  |  |  |  | 31.2 µM (≈ 13.5 µg/mL) | 7.8 µM (≈ 3.37 µg/mL) | 250 µM (≈ 108 µg/mL) | 62.5 µM (≈ 27 µg/mL) | 7.8 µM (≈ 3.37 µg/mL) | 3.9 µM (≈ 1.68 µg/mL) | inactive | ≤ 0.12 µM | ≤ 0.06 µM | 500 µM (≈ 216 µg/mL) | 62.5 µM (≈ 27 µg/mL) | 63 | MBC [15]: 0.12 µM (≈ 0.0518 µg/mL); MBC [16]: 0.12 µM (≈ 0.0518 µg/mL); MIC [16]: 0.03 µM (≈ 0.0129 µg/mL); MBC [17]: 31.2 µM (≈ 13.5 µg/mL); MIC [17]: 31.2 µM (≈ 13.5 µg/mL)
C[C@H]1COc2c(N3CCN(C)CC3)c(F)cc3c(=O)c(C(=O)NCCCCCCCCCCCCNC(=O)c4cn5c6c(c(N7CCN(C)CC7)c(F)cc6c4=O)OC[C@@H]5C)cn1c23 |  |  |  | 2100 nM | 5 µM (≈ 4.44 µg/mL) |  | 60% |  | ≤ 0.97 µM | ≤ 0.97 µM | 31.2 µM (≈ 27.7 µg/mL) | 31.2 µM (≈ 27.7 µg/mL) | 3.9 µM (≈ 3.46 µg/mL) | 3.9 µM (≈ 3.46 µg/mL) | inactive | 1.9 µM (≈ 1.69 µg/mL) | 1.9 µM (≈ 1.69 µg/mL) |  |  |  | solubility [18]: Insoluble
C[C@H]1COc2c(N3CCN(C)CC3)c(F)cc3c(=O)c(C(=O)NCCCCCCCCCNC(=O)c4cn5c6c(c(N7CCN(C)CC7)c(F)cc6c4=O)OC[C@@H]5C)cn1c23 | 200 nM | 200 nM | 200 nM | 2500 nM | 5 µM (≈ 4.23 µg/mL) | 20% | 60% | 200 nM | 3.9 µM (≈ 3.3 µg/mL) | 3.9 µM (≈ 3.3 µg/mL) | 250 µM (≈ 211 µg/mL) | 62.5 µM (≈ 52.8 µg/mL) | 31.2 µM (≈ 26.4 µg/mL) | 31.2 µM (≈ 26.4 µg/mL) | inactive | 31.2 µM (≈ 26.4 µg/mL) | 31.2 µM (≈ 26.4 µg/mL) |  |  |  | IC50 [19]: 200 nM; solubility [18]: soluble
O=C(O)c1cn(C2CC2)c2cc(N3CCN(C(=O)CCCCCCCCCCCCCC(=O)N4CCN(c5cc6c(cc5F)c(=O)c(C(=O)O)cn6C5CC5)CC4)CC3)c(F)cc2c1=O |  |  |  |  |  |  | 40% |  | 500 µM (≈ 450 µg/mL) | 62.5 µM (≈ 56.2 µg/mL) | 250 µM (≈ 225 µg/mL) | 62.5 µM (≈ 56.2 µg/mL) | 500 µM (≈ 450 µg/mL) | 125 µM (≈ 112 µg/mL) | inactive | 1.9 µM (≈ 1.71 µg/mL) | ≤ 0.06 µM | 500 µM (≈ 450 µg/mL) | 1.9 µM (≈ 1.71 µg/mL) | 8 | MBC [15]: 0.48 µM (≈ 0.432 µg/mL); MIC [15]: 0.06 µM (≈ 0.0539 µg/mL); MBC [16]: 0.97 µM (≈ 0.872 µg/mL); MIC [16]: 0.06 µM (≈ 0.0539 µg/mL); MBC [17]: 31.2 µM (≈ 28.1 µg/mL); MIC [17]: 15.6 µM (≈ 14 µg/mL)
